This is an account of results in PMC6934184, “Selective DNA-PKcs inhibition extends the therapeutic index of localized radiotherapy and chemotherapy” (The Journal of Clinical Investigation, 2019).

This assay concerns the target T1, EGFR (ErbB1) L858R (Homo sapiens, UniProt P00533, L858R).
T1 construct: purchased Thermo Fisher Scientific (Life Technologies) SelectScreen
Put plainly: SelectScreen Z'LYTE. Type of assay: biochemical. The essentials:
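Compound tested in SelectScreen activity assays, Z'LYTE for CSF1R, CDK1/cyclin B and MAP2K6 and Adapta for CAMK1. ATP for CAMK1 was listed as 10, and Km app was used for CSF1R. Results are expressed in percent.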

T1 sequence (P00533 25-1210 L858R): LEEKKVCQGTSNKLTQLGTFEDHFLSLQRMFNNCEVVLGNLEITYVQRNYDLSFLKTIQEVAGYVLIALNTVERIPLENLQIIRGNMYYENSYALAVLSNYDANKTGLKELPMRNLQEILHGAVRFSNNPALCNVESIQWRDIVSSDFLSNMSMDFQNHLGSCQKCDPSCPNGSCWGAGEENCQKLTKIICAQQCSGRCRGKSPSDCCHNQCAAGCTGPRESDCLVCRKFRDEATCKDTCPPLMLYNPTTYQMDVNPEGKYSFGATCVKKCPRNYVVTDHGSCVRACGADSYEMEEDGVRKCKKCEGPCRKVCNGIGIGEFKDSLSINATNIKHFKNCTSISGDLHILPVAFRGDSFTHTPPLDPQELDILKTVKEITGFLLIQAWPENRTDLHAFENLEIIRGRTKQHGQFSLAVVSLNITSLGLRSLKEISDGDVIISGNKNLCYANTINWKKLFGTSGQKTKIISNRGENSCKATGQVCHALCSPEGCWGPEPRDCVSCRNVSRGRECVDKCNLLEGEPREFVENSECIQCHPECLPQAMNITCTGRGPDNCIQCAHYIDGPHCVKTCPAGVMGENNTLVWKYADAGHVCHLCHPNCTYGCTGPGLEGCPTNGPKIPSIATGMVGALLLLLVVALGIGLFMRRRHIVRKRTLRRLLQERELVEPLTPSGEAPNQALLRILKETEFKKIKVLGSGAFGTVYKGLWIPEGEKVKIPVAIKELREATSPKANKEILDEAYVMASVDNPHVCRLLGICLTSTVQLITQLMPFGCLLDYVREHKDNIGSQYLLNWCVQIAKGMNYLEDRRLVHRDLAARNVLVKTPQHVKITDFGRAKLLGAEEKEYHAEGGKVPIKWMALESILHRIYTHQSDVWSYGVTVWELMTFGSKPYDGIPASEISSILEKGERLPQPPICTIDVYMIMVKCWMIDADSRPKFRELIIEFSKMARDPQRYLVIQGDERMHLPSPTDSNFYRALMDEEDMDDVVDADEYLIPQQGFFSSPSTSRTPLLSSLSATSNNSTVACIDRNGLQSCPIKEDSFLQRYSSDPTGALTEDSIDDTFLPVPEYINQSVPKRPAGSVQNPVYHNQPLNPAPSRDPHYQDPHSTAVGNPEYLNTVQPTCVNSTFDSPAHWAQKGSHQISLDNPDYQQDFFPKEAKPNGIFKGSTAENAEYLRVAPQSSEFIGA

On to `CN(C(=O)CN1CCOCC1)c1ccc2sc3c(-c4cccc5c(=O)cc(N6CC7CCC(C6)O7)oc45)cccc3c2c1` [NU5455], for which the inhibition at 1 µM is -15%.
